Results published in the Deep4Chem optical property database.

Assay: solvent given as SMILES

With `CCCCCCCCCCCCCCCC[n+]1ccc(/C=C/c2ccccc2O)cc1` the absorption maximum (in C1COCCO1) was 558.2 nm, the absorption maximum (in CC(C)=O) was 547 nm and the absorption maximum (in CC(C)O) was 520.4 nm. It also gave an absorption maximum (in CCCCCC) of 530.1 nm, an absorption maximum (in CCCCO) of 523.4 nm and an absorption maximum (in CCCO) of 518.9 nm. For the same compound, the absorption maximum (in CCO) was 518.9 nm, the absorption maximum (in CN(C)C=O) was 549.1 nm and the absorption maximum (in CO) was 503.8 nm. It also gave an absorption maximum (in CS(C)=O) of 523.4 nm, an absorption maximum (in Cc1ccccc1) of 554.2 nm and an absorption maximum (in ClC(Cl)(Cl)Cl) of 548.4 nm. For the same compound, the absorption maximum (in ClC(Cl)Cl) was 554.2 nm, the absorption maximum (in ClCCl) was 553.8 nm and the absorption maximum (in c1ccccc1) was 553.7 nm.

Compound `CCOC(=O)CSc1nc(C)c(CC)c(C#N)c1C#N` has an absorption maximum (in c1ccccc1) of 357 nm.

Compound `O=P1(c2ccccc2)c2ccccc2-c2sc3ccccc3c21` (configuration not stated) has an absorption maximum (in C1CCCCC1) of 327 nm, an absorption maximum (in CC#N) of 327 nm and an absorption maximum (in CCO) of 329 nm. It also gave an absorption maximum (in ClCCl) of 329 nm.

In the case of `COc1ccc(C2=N/C(=C\c3ccc(C#N)cc3)C(=O)N2)cc1OC`, the absorption maximum (in C1COCCO1) is reported as 405 nm.

In the case of `CCN(CC)c1ccc(Nc2cc3oc(-c4ccc(C#N)cc4)nc3c3ccccc23)c(C)c1`, the absorption maximum (in C1COCCO1) is reported as 415 nm.

Work on `CCCCCCCCCCCCCCOc1ccc(C#Cc2cc3nc4c(OCCCCCCCCCCCC)cc5c6cc(OCCCCCCCCCCCC)c(OCCCCCCCCCCCC)cc6c6cc(OCCCCCCCCCCCC)c(OCCCCCCCCCCCC)cc6c5c4nc3cc2C#Cc2ccc(OCCCCCCCCCCCCCC)cc2)cc1` yielded an absorption maximum (in ClC(Cl)Cl) of 486 nm.

For `Fc1c(F)c(-n2c3ccccc3c3ccccc32)c(F)c(F)c1/C=C/C(=C(c1ccccc1)c1ccccc1)c1ccccc1`, the absorption maximum (in Cc1ccccc1) was 360 nm.

Work on `COc1ccc2cc(-c3ccc(C)cc3)c(=O)oc2c1` yielded an absorption maximum (in C1CCOC1) of 342 nm, an absorption maximum (in CCCCCC) of 338 nm and an absorption maximum (in CCO) of 342 nm. The absorption maximum (in CS(C)=O) was 345 nm.

`O=P(c1ccccc1)(c1ccccc1)c1cccc(-n2c(-c3ccccc3P(=O)(c3ccccc3)c3ccccc3)nc3ccccc32)c1` showed an absorption maximum (in ClCCl) of 300 nm.

Compound `C(#Cc1ncnc2ccccc12)c1ccc(N(c2ccccc2)c2ccccc2)cc1` has an absorption maximum (in ClCCl) of 411 nm.

With `F[B-]1(F)n2c(c(-c3ccccc3)c(-c3ccccc3)c2-c2ccccc2)C(c2ccccc2)=C2C(c3ccccc3)=C(c3ccccc3)C(c3ccccc3)=[N+]21` the absorption maximum (in C1CCOC1) was 573 nm.

For `CN(C)c1nc(N)nc2c1nc(C#N)n2Cc1ccccc1`, the absorption maximum (in C1COCCO1) was 334 nm, the absorption maximum (in CC#N) was 326 nm and the absorption maximum (in CO) was 327 nm. The absorption maximum (in ClCCl) was 324 nm.

For `CC[N+]1(CC)CN2C(=N1)C(C(=O)O)=Cc1cc(OC)c(OC)cc12`, the absorption maximum (in O) was 392 nm.

In the case of `CCCCCCn1c2c(c3cc(-c4ccc5ccc6cccc7ccc4c5c67)ccc31)-c1c(c3cc(-c4ccc5ccc6cccc7ccc4c5c67)ccc3n1CCCCCC)-c1c(c3cc(-c4ccc5ccc6cccc7ccc4c5c67)ccc3n1CCCCCC)-c1c-2c2cc(-c3ccc4ccc5cccc6ccc3c4c56)ccc2n1CCCCCC`, the absorption maximum (in ClCCl) is reported as 340 nm.

With `Cc1c(COC(=O)c2ccccc2Cl)n2c(OCC(=O)c3ccccc3Cl)c(C)c(=O)n2c1=O` the absorption maximum (in CCO) was 381 nm.

In the case of `CCN(CC)c1ccc2cc3ccc(=[N+](CC)CC)cc-3oc2c1`, the absorption maximum (in CC#N) is reported as 525 nm, the absorption maximum (in CCO) is reported as 526 nm and the absorption maximum (in CN(C)C=O) is reported as 535 nm. It also gave an absorption maximum (in O) of 550 nm.

For `CCCCN1C(=O)c2c(Br)c(Br)c3c4c(Br)c(Br)c5c6c(c(Br)c(Br)c(c7c(Br)c(Br)c(c2c37)C1=O)c64)C(=O)N(CCCC)C5=O`, the absorption maximum (in ClC(Cl)Cl) was 538 nm.

Work on `C=CCOC(=O)C(C#N)=C1C=C(/C=C/c2ccc(N(C)C)cc2)OC(/C=C/c2ccc(N(C)C)cc2)=C1` yielded an absorption maximum (in C1CCOC1) of 470 nm, an absorption maximum (in C1COCCO1) of 462 nm and an absorption maximum (in CC#N) of 476 nm. It also gave an absorption maximum (in CN(C)C=O) of 486 nm, an absorption maximum (in Cc1ccccc1) of 467 nm and an absorption maximum (in ClC(Cl)Cl) of 479 nm. The absorption maximum (in ClCCCl) was 482 nm and the absorption maximum (in ClCCl) was 481 nm.

For `COc1ccc(/N=N/c2c(O)c3ccccc3n(C)c2=O)c(S(=O)(=O)O)c1`, the absorption maximum (in C1CCOC1) was 449 nm, the absorption maximum (in CC(C)=O) was 451 nm and the absorption maximum (in CCOC(C)=O) was 446 nm. For the same compound, the absorption maximum (in CO) was 448 nm, the absorption maximum (in CS(C)=O) was 447 nm and the absorption maximum (in Cc1ccccc1) was 449 nm. It also gave an absorption maximum (in ClCCl) of 451 nm and an absorption maximum (in O) of 447 nm.

Compound `F[B-]1(F)N2C=CN=CC2=[N+]2[N+]1=Cc1c(-c3ccccc3)cc(-c3ccccc3)n1[B-]2(F)F` has an absorption maximum (in ClCCl) of 528 nm.

`CC1=NN(c2ccccc2)C(=O)/C1=C\c1cn(-c2ccccc2)nc1-c1ccc([N+](=O)[O-])cc1` showed an absorption maximum (in C1CCOC1) of 343 nm, an absorption maximum (in C1COCCO1) of 361 nm and an absorption maximum (in CCO) of 362 nm. It also gave an absorption maximum (in CCOC(C)=O) of 359 nm, an absorption maximum (in CN(C)C=O) of 361 nm and an absorption maximum (in CO) of 360 nm. It also gave an absorption maximum (in CS(C)=O) of 364 nm, an absorption maximum (in Cc1ccccc1) of 364 nm and an absorption maximum (in ClC(Cl)Cl) of 363 nm.

Compound `N#Cc1ccc(N)cc1` has an absorption maximum (in C1CCCCC1) of 283 nm, an absorption maximum (in CC#N) of 272.85 nm and an absorption maximum (in CCCCCC) of 260.99 nm. The absorption maximum (in CCO) was 276 nm, the absorption maximum (in O) was 283 nm and the absorption maximum (in OCC(F)(F)F) was 264 nm.

In the case of `c1ccc(C2c3ccccc3-c3cc4c(cc32)-c2ccccc2C4c2ccccc2)cc1` (configuration not stated), the absorption maximum (in ClCCl) is reported as 328 nm.

`C(=C\c1ccc(Nc2ccccc2)cc1)/c1ccccc1` showed an absorption maximum (in CC#N) of 351 nm and an absorption maximum (in CCCCCC) of 346 nm.

With `c1ccc(-c2c3c(c(-c4ccccc4)c4c2-c2ccccc2C4)-c2ccccc2C3)cc1` the absorption maximum (in C1CCCCC1) was 329 nm.

For `CCc1c(C)c2n(c1C)[B-](F)(F)[N+]1=C(C=C3c4ccccc4-c4ccccc43)C=CC1=C2C`, the absorption maximum (in C1CCCCC1) was 589 nm.

For `CCn1c2ccccc2sc2c(C#N)c3oc4ccccc4oc3c(C#N)c21`, the absorption maximum (in ClC(Cl)Cl) was 460 nm.

In the case of `CCc1cc(CC)cc(-n2c3ccccc3c3cc4c(cc32)c2ccccc2n4-c2cc(CC)cc(CC)c2)c1`, the absorption maximum (in ClC(Cl)Cl) is reported as 410 nm.

With `CCCCCCCCN1C(=O)c2ccc3c4c(-c5ccc(-n6c7ccccc7c7ccccc76)cc5)cc5c6c(cc(-c7ccc(-n8c9ccccc9c9ccccc98)cc7)c(c7ccc(c2c37)C1=O)c64)C(=O)N(CCCCCCCC)C5=O` the absorption maximum (in ClC(Cl)Cl) was 551 nm.

Compound `CCN(CC)c1ccc(/C=C/c2cc(/C=C/c3ccc(N(CC)CC)cc3)nc(N)n2)cc1` has an absorption maximum (in Cc1ccccc1) of 418 nm and an absorption maximum (in ClC(Cl)Cl) of 433 nm.

For `COCCOCCOCCOCC(COCCOCCOCCOC)Oc1cc(/C=C/c2ccc(/C=C(\C#N)c3ccncc3)cc2)c(OC(COCCOCCOCCOC)COCCOCCOCCOC)cc1/C=C/c1ccc(/C=C(\C#N)c2ccncc2)cc1`, the absorption maximum (in ClCCl) was 445 nm.

`Cc1cc2ccccc2c2c1c1ccccc1n2-c1ccc(N(c2ccccc2)c2ccccc2)cc1` gave an absorption maximum (in ClCCl) of 304 nm.

`C1=C(c2ccccc2)C(c2ccccc2)C(c2ccccc2)=C1` showed an absorption maximum (in C1CCOC1) of 304 nm.

`O=[N+]([O-])c1ccc([N+]2=Cc3ccc4c5c(ccc4c3O[B-]2(c2ccccc2)c2ccccc2)C=[N+](c2ccc([N+](=O)[O-])cc2)[B-](c2ccccc2)(c2ccccc2)O5)cc1` gave an absorption maximum (in Cc1ccccc1) of 536 nm and an absorption maximum (in ClCCl) of 541 nm.

`CCCN1c2ccccc2Sc2cc(/C=C\c3cc(=O)oc4cc(C)c(Cl)cc34)ccc21` showed an absorption maximum (in ClC(Cl)Cl) of 432 nm.

In the case of `Oc1ccccc1`, the absorption maximum (in C1CCCCC1) is reported as 265.96 nm.

`CN(C)c1ccc(-c2cc(-c3cccs3)nc(-c3ccccc3)n2)cc1` gave an absorption maximum (in ClC(Cl)Cl) of 371 nm.

Work on `N#CSC1=CC2=C(c3ccccc3)c3ccc(SC#N)n3[B-](F)(F)[N+]2=C1N1CCOCC1` yielded an absorption maximum (in CCCCCC) of 560 nm, an absorption maximum (in CCOC(C)=O) of 554 nm and an absorption maximum (in ClCCl) of 558 nm.

Work on `CN1c2ccc3c(c2-c2ccccc2S1(=O)=O)-c1ccccc1S(=O)(=O)N3C` yielded an absorption maximum (in ClCCl) of 350 nm.

For `CCCCCCCCCCCCN1C(=O)c2c(c3ccc4cc(-c5ccccc5)c(OC)cc4c3c3c2ccc2cc(-c4ccccc4)c(OC)cc23)C1=O`, the absorption maximum (in ClCCl) was 432 nm.

Compound `C[Si](C)(c1cccc2cc3ccccc3cc12)[Si](C)(C)c1cccc2cc3ccccc3cc12` has an absorption maximum (in C1CCCCC1) of 385.82 nm.

In the case of `N#Cc1cc(/C=C/c2ccc(N(c3ccccc3)c3ccccc3)cc2)ccc1/C=C/c1ccc(/C=C/c2ccc(N(c3ccccc3)c3ccccc3)cc2)cc1C#N`, the absorption maximum (in ClCCl) is reported as 447 nm.

Work on `O=C(O)c1ccc(-c2nc(-c3ccccc3)c3ccccn23)cc1` yielded an absorption maximum (in CC#N) of 372 nm.

`CC(C)(C)c1ccc2oc3nc4oc5cc(-n6c7ccccc7c7ccccc76)ccc5c4cc3c2c1` showed an absorption maximum (in ClC(Cl)Cl) of 347 nm.

For `O=P1(c2ccccc2)C2=C(c3ccccc31)C(c1ccccc1)(c1ccccc1)c1cc(N(c3ccccc3)c3ccccc3)ccc12` (configuration not stated), the absorption maximum (in CC#N) was 427 nm, the absorption maximum (in CO) was 438 nm and the absorption maximum (in Cc1ccccc1) was 431 nm.

For `CCC1=C(C)C(=O)n2c1cc1[nH]c(C(=O)OC(C)(C)C)c(C)c1c2=O`, the absorption maximum (in C1CCCCC1) was 392 nm, the absorption maximum (in CO) was 397 nm and the absorption maximum (in CS(C)=O) was 397 nm. For the same compound, the absorption maximum (in ClC(Cl)Cl) was 397 nm and the absorption maximum (in c1ccccc1) was 396 nm.

With `CC1=C(C#Cc2ccc(N(c3ccccc3)c3ccccc3)cc2)C(C)=[N+]2C1=C(c1ccccc1)c1c(C)c(C#Cc3ccc(N(c4ccccc4)c4ccccc4)cc3)c(C)n1[B-]2(F)F` the absorption maximum (in C1CCOC1) was 593 nm.

`N#Cc1c(N2CCCCC2)cc(-c2ccc(O)cc2)c2c1-c1cccc3cccc-2c13` gave an absorption maximum (in O) of 432 nm.

Compound `CN(C)c1ccc(/C=C/c2cc[n+](CCC[n+]3ccc(/C=C/c4ccc(N(C)C)cc4)cc3)cc2)cc1` has an absorption maximum (in CC1COC(=O)O1) of 485 nm, an absorption maximum (in CC#N) of 488 nm and an absorption maximum (in CC(C)=O) of 484 nm. It also gave an absorption maximum (in CC(C)O) of 499 nm, an absorption maximum (in CCO) of 500 nm and an absorption maximum (in CN(C)C=O) of 485 nm. The absorption maximum (in CO) was 494 nm, the absorption maximum (in CS(C)=O) was 485 nm and the absorption maximum (in ClC(Cl)Cl) was 501 nm. It also gave an absorption maximum (in O) of 466 nm and an absorption maximum (in c1ccncc1) of 498 nm.

`CC(C)(C)c1ccc2c(c1)c1cc(C(C)(C)C)cc3c1n2-c1cc(-c2ccccc2F)cc2c1B3c1cc(C(C)(C)C)cc3c4cc(C(C)(C)C)ccc4n-2c13` gave an absorption maximum (in Cc1ccccc1) of 471.56 nm.

With `O=P1(c2ccccc2)C(c2ccc(C(F)(F)F)cc2)=Cc2ccccc21` (configuration not stated) the absorption maximum (in C1CCOC1) was 342 nm.

Work on `F[B-]1(F)OC(c2ccc(N3CCCCC3)cc2)=Cc2cccc[n+]21` yielded an absorption maximum (in ClC(Cl)Cl) of 421 nm.

Work on `CCCCCN1c2ccccc2Sc2cc(/C=C/c3ccc(/C=C(\C#N)C(=O)O)s3)ccc21` yielded an absorption maximum (in ClCCl) of 494 nm.
